Numbers after ± are expanded uncertainties.
Assay: mn = molality of the nth substance listed, in mol/kg
Conditions: 101 kPa, Liquid; for mass density: Vibrating tube method; for speed of sound: Pulse-echo method

## [Ca+2].[O-][Cl+3]([O-])([O-])[O-].[O-][Cl+3]([O-])([O-])[O-] [calcium diperchlorate] + C[S+](C)[O-]
293.15 K, m1 = 0.01996
  mass density: 1103.64 ± 0.23 kg/m3
293.15 K, m1 = 0.02505
  mass density: 1104.52 ± 0.23 kg/m3
293.15 K, m1 = 0.03085
  mass density: 1105.52 ± 0.23 kg/m3
293.15 K, m1 = 0.03807
  mass density: 1106.77 ± 0.24 kg/m3
293.15 K, m1 = 0.0488
  mass density: 1108.62 ± 0.24 kg/m3
293.15 K, m1 = 0.06089
  mass density: 1110.72 ± 0.24 kg/m3
293.15 K, m1 = 0.07827
  mass density: 1113.74 ± 0.24 kg/m3
293.15 K, m1 = 0.1006
  mass density: 1117.66 ± 0.24 kg/m3
293.15 K, m1 = 0.1214
  mass density: 1121.33 ± 0.25 kg/m3
293.15 K, m1 = 0.1417
  mass density: 1124.92 ± 0.25 kg/m3
293.15 K, m1 = 0.1651
  mass density: 1129.07 ± 0.25 kg/m3
293.15 K, m1 = 0.1858
  mass density: 1132.79 ± 0.25 kg/m3
298.15 K, m1 = 0.03085
  speed of sound: 1486.8 ± 1.3 m/s
  mass density: 1100.51 ± 0.23 kg/m3
298.15 K, m1 = 0.03807
  speed of sound: 1487.3 ± 1.3 m/s
  mass density: 1101.77 ± 0.23 kg/m3
298.15 K, m1 = 0.0488
  speed of sound: 1488.2 ± 1.3 m/s
  mass density: 1103.63 ± 0.24 kg/m3
298.15 K, m1 = 0.06089
  speed of sound: 1489.3 ± 1.3 m/s
  mass density: 1105.73 ± 0.24 kg/m3
298.15 K, m1 = 0.07827
  speed of sound: 1490.8 ± 1.3 m/s
  mass density: 1108.77 ± 0.24 kg/m3
298.15 K, m1 = 0.1006
  speed of sound: 1492.6 ± 1.3 m/s
  mass density: 1112.7 ± 0.24 kg/m3
298.15 K, m1 = 0.1214
  speed of sound: 1494.5 ± 1.3 m/s
  mass density: 1116.39 ± 0.24 kg/m3
298.15 K, m1 = 0.1417
  speed of sound: 1496.2 ± 1.3 m/s
  mass density: 1119.99 ± 0.25 kg/m3
298.15 K, m1 = 0.1651
  speed of sound: 1498.2 ± 1.3 m/s
  mass density: 1124.16 ± 0.25 kg/m3
298.15 K, m1 = 0.1858
  speed of sound: 1500.1 ± 1.4 m/s
  mass density: 1127.88 ± 0.25 kg/m3
298.15 K, m1 = 0.01996
  mass density: 1098.63 ± 0.23 kg/m3
298.15 K, m1 = 0.02505
  mass density: 1099.51 ± 0.23 kg/m3
303.15 K, m1 = 0.01996
  mass density: 1093.62 ± 0.23 kg/m3
303.15 K, m1 = 0.02505
  mass density: 1094.5 ± 0.23 kg/m3
303.15 K, m1 = 0.03085
  mass density: 1095.51 ± 0.23 kg/m3
303.15 K, m1 = 0.03807
  mass density: 1096.77 ± 0.23 kg/m3
303.15 K, m1 = 0.0488
  mass density: 1098.64 ± 0.23 kg/m3
303.15 K, m1 = 0.06089
  mass density: 1100.74 ± 0.24 kg/m3
303.15 K, m1 = 0.07827
  mass density: 1103.81 ± 0.24 kg/m3
303.15 K, m1 = 0.1006
  mass density: 1107.75 ± 0.24 kg/m3
303.15 K, m1 = 0.1214
  mass density: 1111.45 ± 0.24 kg/m3
303.15 K, m1 = 0.1417
  mass density: 1115.06 ± 0.25 kg/m3
303.15 K, m1 = 0.1651
  mass density: 1119.25 ± 0.25 kg/m3
303.15 K, m1 = 0.1858
  mass density: 1122.99 ± 0.25 kg/m3
313.15 K, m1 = 0.01996
  mass density: 1083.61 ± 0.23 kg/m3
313.15 K, m1 = 0.02505
  mass density: 1084.5 ± 0.23 kg/m3
313.15 K, m1 = 0.03085
  mass density: 1085.52 ± 0.23 kg/m3
313.15 K, m1 = 0.03807
  mass density: 1086.78 ± 0.23 kg/m3
313.15 K, m1 = 0.0488
  mass density: 1088.67 ± 0.23 kg/m3
313.15 K, m1 = 0.06089
  mass density: 1090.8 ± 0.24 kg/m3
313.15 K, m1 = 0.07827
  mass density: 1093.88 ± 0.24 kg/m3
313.15 K, m1 = 0.1006
  mass density: 1097.85 ± 0.24 kg/m3
313.15 K, m1 = 0.1214
  mass density: 1101.58 ± 0.24 kg/m3
313.15 K, m1 = 0.1417
  mass density: 1105.22 ± 0.24 kg/m3
313.15 K, m1 = 0.1651
  mass density: 1109.44 ± 0.25 kg/m3
313.15 K, m1 = 0.1858
  mass density: 1113.2 ± 0.25 kg/m3
323.15 K, m1 = 0.01996
  mass density: 1073.6 ± 0.23 kg/m3
323.15 K, m1 = 0.02505
  mass density: 1074.49 ± 0.23 kg/m3
323.15 K, m1 = 0.03085
  mass density: 1075.52 ± 0.23 kg/m3
323.15 K, m1 = 0.03807
  mass density: 1076.8 ± 0.23 kg/m3
323.15 K, m1 = 0.0488
  mass density: 1078.7 ± 0.23 kg/m3
323.15 K, m1 = 0.06089
  mass density: 1080.86 ± 0.23 kg/m3
323.15 K, m1 = 0.07827
  mass density: 1083.96 ± 0.24 kg/m3
323.15 K, m1 = 0.1006
  mass density: 1087.97 ± 0.24 kg/m3
323.15 K, m1 = 0.1214
  mass density: 1091.73 ± 0.24 kg/m3
323.15 K, m1 = 0.1417
  mass density: 1095.39 ± 0.24 kg/m3
323.15 K, m1 = 0.1651
  mass density: 1099.65 ± 0.25 kg/m3
323.15 K, m1 = 0.1858
  mass density: 1103.45 ± 0.25 kg/m3
333.15 K, m1 = 0.01996
  mass density: 1063.59 ± 0.23 kg/m3
333.15 K, m1 = 0.02505
  mass density: 1064.5 ± 0.23 kg/m3
333.15 K, m1 = 0.03085
  mass density: 1065.54 ± 0.23 kg/m3
333.15 K, m1 = 0.03807
  mass density: 1066.82 ± 0.23 kg/m3
333.15 K, m1 = 0.0488
  mass density: 1068.74 ± 0.23 kg/m3
333.15 K, m1 = 0.06089
  mass density: 1070.91 ± 0.23 kg/m3
333.15 K, m1 = 0.07827
  mass density: 1074.05 ± 0.24 kg/m3
333.15 K, m1 = 0.1006
  mass density: 1078.08 ± 0.24 kg/m3
333.15 K, m1 = 0.1214
  mass density: 1081.88 ± 0.24 kg/m3
333.15 K, m1 = 0.1417
  mass density: 1085.57 ± 0.24 kg/m3
333.15 K, m1 = 0.1651
  mass density: 1089.87 ± 0.25 kg/m3
333.15 K, m1 = 0.1858
  mass density: 1093.69 ± 0.25 kg/m3

## C[S+](C)[O-] [dimethyl sulfoxide] + O=S(=O)([O-])C(F)(F)F.O=S(=O)([O-])C(F)(F)F.[Be+2]
293.15 K, m2 = 0
  mass density: 1100.21 ± 0.23 kg/m3
298.15 K, m2 = 0
  mass density: 1095.18 ± 0.23 kg/m3
303.15 K, m2 = 0
  mass density: 1090.16 ± 0.22 kg/m3
313.15 K, m2 = 0
  mass density: 1080.11 ± 0.22 kg/m3
323.15 K, m2 = 0
  mass density: 1070.07 ± 0.22 kg/m3
333.15 K, m2 = 0
  mass density: 1060.03 ± 0.22 kg/m3

## C[S+](C)[O-] [dimethyl sulfoxide] + O=S(=O)([O-])C(F)(F)F.[Na+]
293.15 K, m2 = 0
  mass density: 1100.21 ± 0.18 kg/m3
298.15 K, m2 = 0
  mass density: 1095.18 ± 0.18 kg/m3
303.15 K, m2 = 0
  mass density: 1090.16 ± 0.18 kg/m3
313.15 K, m2 = 0
  mass density: 1080.11 ± 0.22 kg/m3
323.15 K, m2 = 0
  mass density: 1090.07 ± 0.44 kg/m3
333.15 K, m2 = 0
  mass density: 1080.03 ± 0.68 kg/m3

## C[S+](C)[O-] [dimethyl sulfoxide] + [Ba+2].[O-][Cl+3]([O-])([O-])[O-].[O-][Cl+3]([O-])([O-])[O-]
293.15 K, m2 = 0
  mass density: 1100.21 ± 0.31 kg/m3
298.15 K, m2 = 0
  mass density: 1095.18 ± 0.31 kg/m3
303.15 K, m2 = 0
  mass density: 1090.16 ± 0.31 kg/m3
313.15 K, m2 = 0
  mass density: 1080.12 ± 0.31 kg/m3
323.15 K, m2 = 0
  mass density: 1070.08 ± 0.31 kg/m3
333.15 K, m2 = 0
  mass density: 1060.02 ± 0.31 kg/m3

## C[S+](C)[O-] [dimethyl sulfoxide] + [Ca+2].[O-][Cl+3]([O-])([O-])[O-].[O-][Cl+3]([O-])([O-])[O-]
293.15 K, m2 = 0
  mass density: 1100.21 ± 0.23 kg/m3
298.15 K, m2 = 0
  mass density: 1095.18 ± 0.23 kg/m3
303.15 K, m2 = 0
  mass density: 1090.16 ± 0.23 kg/m3
313.15 K, m2 = 0
  mass density: 1080.12 ± 0.23 kg/m3
323.15 K, m2 = 0
  mass density: 1070.08 ± 0.23 kg/m3
333.15 K, m2 = 0
  mass density: 1060.02 ± 0.23 kg/m3

## C[S+](C)[O-] [dimethyl sulfoxide] + [Mg+2].[O-][Cl+3]([O-])([O-])[O-].[O-][Cl+3]([O-])([O-])[O-]
293.15 K, m2 = 0
  mass density: 1100.21 ± 0.23 kg/m3
298.15 K, m2 = 0
  mass density: 1095.18 ± 0.23 kg/m3
303.15 K, m2 = 0
  mass density: 1090.16 ± 0.23 kg/m3
313.15 K, m2 = 0
  mass density: 1080.12 ± 0.23 kg/m3
323.15 K, m2 = 0
  mass density: 1070.08 ± 0.23 kg/m3
333.15 K, m2 = 0
  mass density: 1060.02 ± 0.22 kg/m3

## C[S+](C)[O-] [dimethyl sulfoxide] + [O-][Cl+3]([O-])([O-])[O-].[O-][Cl+3]([O-])([O-])[O-].[Sr+2]
293.15 K, m2 = 0
  mass density: 1100.22 ± 0.27 kg/m3
298.15 K, m2 = 0
  mass density: 1095.18 ± 0.27 kg/m3
303.15 K, m2 = 0
  mass density: 1090.17 ± 0.27 kg/m3
313.15 K, m2 = 0
  mass density: 1080.12 ± 0.27 kg/m3
323.15 K, m2 = 0
  mass density: 1070.08 ± 0.27 kg/m3
333.15 K, m2 = 0
  mass density: 1060.03 ± 0.27 kg/m3
